The values that follow come from patent publication US7879876B2, “Sulfonamide derivatives and use thereof for the modulation of metalloproteinases” (Merck Serono SA, priority 2005, dated 2011).

What all share (assay type): biochemical
The target in assay [1] is T1, gelatinase A (MMP-2) (Homo sapiens, UniProt P08253).
T1 sequence (P08253 110-660): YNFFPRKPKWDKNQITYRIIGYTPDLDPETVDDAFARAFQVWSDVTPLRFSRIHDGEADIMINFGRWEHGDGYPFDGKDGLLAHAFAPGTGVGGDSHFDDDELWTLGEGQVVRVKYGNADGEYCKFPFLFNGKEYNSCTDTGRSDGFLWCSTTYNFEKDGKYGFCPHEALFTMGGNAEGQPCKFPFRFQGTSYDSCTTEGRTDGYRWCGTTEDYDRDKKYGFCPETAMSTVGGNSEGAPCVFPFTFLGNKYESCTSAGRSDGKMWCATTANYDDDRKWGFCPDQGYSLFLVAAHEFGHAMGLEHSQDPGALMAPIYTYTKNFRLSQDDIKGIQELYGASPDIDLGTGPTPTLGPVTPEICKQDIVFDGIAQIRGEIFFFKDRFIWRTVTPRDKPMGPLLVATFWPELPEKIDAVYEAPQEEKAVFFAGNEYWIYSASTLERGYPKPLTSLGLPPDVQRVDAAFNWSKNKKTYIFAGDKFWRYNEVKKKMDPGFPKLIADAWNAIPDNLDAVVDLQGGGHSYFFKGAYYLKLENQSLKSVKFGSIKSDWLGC
In words: MMP-2 enzyme inhibition assay (coumarin-labelled peptide substrate). The conditions noted are these: read-out: IC50 MMP2. A digest of the protocol: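 Recombinant human MMP-2, APMA-activated if necessary, run as for the MMP-9 protocol: McaPLGLDpaAR substrate (8 μM working dilution) in 100 mM Tris-HCl pH 7.6, 100 mM NaCl, 10 mM CaCl2, 0.05% Brij 35; ten 3-fold concentrations (100 μM–5.1 nM) in duplicate, 2 h at 37° C. Fluorescence ex 320/em 405 nm, unstopped; IC50 from four-parameter fit.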

Assay [2] has as its target metalloelastase (MMP-12) (Homo sapiens, UniProt P39900). In words: MMP-12 enzyme inhibition assay (coumarin-labelled peptide substrate). To be noted: read-out: IC50 MMP12. In outline: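 Recombinant human MMP-12 assayed per the MMP-9 protocol: Tris-HCl pH 7.6 buffer with NaCl, CaCl2, Brij 35; McaPLGLDpaAR substrate, compounds 100 μM–5.1 nM in duplicate, 2 h at 37° C. Fluorescence read at 405 nm (320 nm excitation) without stopping; IC50 from four-parameter fit.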

The target in assay [3] is T2, collagenase (MMP-1) (Homo sapiens, UniProt P03956).
T2 sequence (P03956 100-469): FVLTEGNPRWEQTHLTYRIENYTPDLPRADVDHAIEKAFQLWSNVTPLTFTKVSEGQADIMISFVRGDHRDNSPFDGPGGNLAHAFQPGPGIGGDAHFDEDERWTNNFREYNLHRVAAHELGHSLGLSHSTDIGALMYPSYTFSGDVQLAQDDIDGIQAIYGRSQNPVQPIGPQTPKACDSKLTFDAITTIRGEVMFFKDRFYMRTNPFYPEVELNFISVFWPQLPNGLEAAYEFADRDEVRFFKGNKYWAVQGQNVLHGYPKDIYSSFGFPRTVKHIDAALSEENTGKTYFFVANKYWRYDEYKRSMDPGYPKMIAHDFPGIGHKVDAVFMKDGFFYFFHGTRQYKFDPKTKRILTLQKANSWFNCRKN
In words: MMP-1 enzyme inhibition assay (coumarin-labelled peptide substrate). The conditions noted are these: read-out: percentage inhibition MMP1. A digest of the protocol:
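Recombinant human MMP-1, APMA-activated if needed, in Tris-HCl pH 7.6 with NaCl, CaCl2 and 0.05% Brij 35; McaPLGLDpaAR substrate added as 8 μM solution, 2 h at 37 °C. Fluorescence (320/405 nm) read without stopping; IC50 from 10 duplicate concentrations (100 μM–5.1 nM) by four-parameter fit.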

Chain of metalloelastase (MMP-12) (P39900 106-470): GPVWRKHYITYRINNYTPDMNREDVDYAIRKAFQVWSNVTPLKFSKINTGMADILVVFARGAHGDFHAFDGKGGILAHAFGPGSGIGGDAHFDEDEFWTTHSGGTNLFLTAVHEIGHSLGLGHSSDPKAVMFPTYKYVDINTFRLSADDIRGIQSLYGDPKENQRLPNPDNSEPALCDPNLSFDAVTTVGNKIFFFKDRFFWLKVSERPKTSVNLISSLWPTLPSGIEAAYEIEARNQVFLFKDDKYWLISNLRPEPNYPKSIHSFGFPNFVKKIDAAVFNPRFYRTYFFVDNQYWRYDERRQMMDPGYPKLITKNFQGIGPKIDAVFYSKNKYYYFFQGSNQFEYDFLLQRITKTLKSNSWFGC

For orientation: IC50 means the concentration needed to halve the response being measured. Usually inhibition stands for the share of the control response that was lost under treatment. In the case of `CCCOc1ccc2c(c1)CN(S(=O)(=O)CC(CC(C)(C)C)N(O)C=O)CC2` (centres unmarked) [Example 40, N-(3,3-dimethyl-1-{[(7-propoxy-3,4-dihydroisoquinolin-2(1H)-yl)sulfonyl]methyl}butyl)-N-hydroxyformamide], the values for the IC50 in assay [1] and in assay [2] were 0.077 µM and 0.015 µM, respectively. For the same compound, the inhibition at 5 µM in assay [3] amounted to 2%.
For `CC(C)(C)CC(CS(=O)(=O)N1CCc2ccc(Cl)cc2C1)N(O)C=O` (centres unmarked) [Example 41, N-(1-{[(7-chloro-3,4-dihydroisoquinolin-2(1H)-yl)sulfonyl]-methyl}-3,3-dimethylbutyl)-N-hydroxyformamide], the IC50 in assay [1] was 0.087 µM; in assay [2], 0.011 µM. Also, in assay [3], the inhibition at 5 µM was found to be 54%.
For `CC(C)(C)CC(CS(=O)(=O)N1CCc2cc(Cl)c(Cl)cc2C1)N(O)C=O` (centres unmarked) [Example 42, N-(1-{[(6,7-dichloro-3,4-dihydroisoquinolin-2(1H)-yl)-sulfonyl]methyl}-3,3-dimethylbutyl)-N-hydroxyformamide], the values for the IC50 in assay [1] and in assay [2] were 0.031 µM and 0.0044 µM, respectively. The inhibition at 5 µM in assay [3] came out at 29%.
For `CC(C)(C)CC(CS(=O)(=O)N1CCc2cc(C(F)(F)F)ccc2C1)N(O)C=O` (centres unmarked) [Example 43, N-[3,3-dimethyl-1-({[6-(trifluoromethyl)-3,4-dihydro-isoquinolin-2(1H)-yl]sulfonyl}methyl)butyl]-N-hydroxyformamide], in that order: 0.021 µM, 0.0032 µM and 53%.
For `CC(C)c1ccc2c(c1)CCN(S(=O)(=O)C[C@H]([C@H]1CCCO1)N(O)C=O)C2` [Example 45, N-hydroxy-N-{(1S)-2-[(6-isopropyl-3,4-dihydroisoquinolin-2(1H)-yl)sulfonyl]-1-[(2R)-tetrahydrofuran-2-yl]ethyl}formamide], the results for the concentration for half-maximal inhibition (IC50) in assay [1] and in assay [2] were 0.025 µM and 0.0015 µM, respectively. The inhibition at 5 µM in assay [3] came to 2%.
In the case of `O=CN(O)C(CS(=O)(=O)N1CCc2cc(C(F)(F)F)ccc2C1)[C@H]1CCCO1` (stereo partly drawn) [Example 47, N-hydroxy-N-(1-[(2R)-tetrahydrofuran-2-yl]-2-{[6-(tri-fluoromethyl)-3,4-dihydroisoquinolin-2(1H)-yl]sulfonyl}ethyl)formamide], the IC50 in assay [1] stood at 0.033 µM; in assay [2], 0.0025 µM. In assay [3], the inhibition at 5 µM worked out at 40%.
With `O=CN(O)C(CCO)CS(=O)(=O)N1CCc2ccc(Cl)cc2C1` (centres unmarked) [Example 48, N-(1-{[(7-chloro-3,4-dihydroisoquinolin-2(1H)-yl)sulfonyl]-methyl}-3-hydroxypropyl)-N-hydroxyformamide], the half-inhibitory concentration (IC50) in assay [1] worked out at 0.077 µM; in assay [2], 0.046 µM. In assay [3], the inhibition at 5 µM is 26%.
For `O=CN(O)C(CO)CS(=O)(=O)N1CCc2cc(Cl)c(Cl)cc2C1` (centres unmarked) [Example 49, N-[2-[(6,7-dichloro-3,4-dihydroisoquinolin-2(1H)-yl)-sulfonyl]-1-(hydroxymethyl)ethyl]-N-hydroxyformamide], in that order: 0.011 µM, 0.0055 µM and 29%.
The corresponding values for `CC(C)C(CS(=O)(=O)N1CCc2ccc(-c3ccc(F)cc3)cc2C1)N(O)C=O` (centres unmarked) [Example 50, N-[1-({[7-(4-fluorophenyl)-3,4-dihydroisoquinolin-2(1H)-yl]sulfonyl}methyl)-2-methylpropyl]-N-hydroxyformamide] are 0.09 µM, 0.0035 µM and 0%.
The corresponding values for `O=CN(O)C(CS(=O)(=O)N1CCc2ccc(F)cc2C1)c1ccoc1` (centres unmarked) [Example 52, N-[2-[(7-fluoro-3,4-dihydroisoquinolin-2(1H)-yl)sulfonyl]-1-(3-furyl)ethyl]-N-hydroxyformamide] are 0.298 µM, 0.046 µM and 14%.
As to `O=CN(O)C(CS(=O)(=O)N1CCc2ccc(F)cc2C1)C1CCN(Cc2ccccc2)CC1` (centres unmarked) [Example 53, N-{1-(1-benzylpiperidin-4-yl)-2-[(7-fluoro-3,4-dihydro-isoquinolin-2(1H)-yl)sulfonyl]ethyl}-N-hydroxyformamide], the results for the IC50 in assay [1] and in assay [2] were 0.298 µM and 0.106 µM, respectively. For the same compound, in assay [3], the inhibition at 5 µM turned out to be 16%.
Consider `CC(C)CC(CS(=O)(=O)N1CCc2ccc(Br)cc2C1)N(O)C=O` (centres unmarked) [Example 55, N-(1-{[(7-bromo-3,4-dihydroisoquinolin-2(1H)-yl)-sulfonyl]methyl}-3-methylbutyl)-N-hydroxyformamide], for which the IC50 in assay [1] came to 0.024 µM; in assay [2], 0.006 µM. The inhibition at 0.1 µM in assay [3] stood at 7%. Besides, in assay [3], the inhibition at 5 µM was 69%.
For the compound `CC(C)(CS(=O)(=O)N1CCc2ccc(Br)cc2C1)N(O)C=O` [Example 56, N-{2-[(7-bromo-3,4-dihydroisoquinolin-2(1H)-yl)sulfonyl]-1,1-dimethylethyl}-N-hydroxyformamide], the IC50 in assay [1] amounted to 0.19 µM; in assay [2] it was 0.051 µM. The inhibition at 5 µM in assay [3] was 34%.
The corresponding values for `CC(C)(C)c1ccc2c(c1)CN(S(=O)(=O)CC(COCc1ccccc1)N(O)C=O)CC2` (centres unmarked) [Example 57, N-(2-(benzyloxy)-1-{[(7-tert-butyl-3,4-dihydroisoquinolin-2(1H)-yl)sulfonyl]methyl}ethyl)-N-hydroxyformamide] are greater than 5 µM, 0.117 µM and 0%.
Regarding `O=CN(O)C(COCc1ccccc1)CS(=O)(=O)N1CCc2ccc(Cl)cc2C1` (centres unmarked) [Example 58, N-(2-(benzyloxy)-1-{[(7-chloro-3,4-dihydroisoquinolin-2(1H)-yl)sulfonyl]methyl}ethyl)-N-hydroxyformamide], the IC50 in assay [1] came out at 0.02 µM. Besides, the concentration for half-maximal inhibition (IC50) in assay [2] turned out to be 0.0045 µM. Further, in assay [3], the inhibition at 0.1 µM is 4% and the inhibition at 5 µM came to 68%.
For `O=CN(O)C(COCc1ccccc1)CS(=O)(=O)N1CCc2ccc(C(F)(F)F)cc2C1` (centres unmarked) [Example 59, N-[2-(benzyloxy)-1-({[7-(trifluoromethyl)-3,4-dihydro-isoquinolin-2(1H)-yl]sulfonyl}methyl)ethyl]-N-hydroxyformamide], the IC50 in assay [1] amounted to 0.083 µM; in assay [2], 0.0075 µM. Also, the inhibition at 5 µM in assay [3] came to 35%.
`O=CN(O)C(CS(=O)(=O)N1CCc2ccc(F)cc2C1)C1CCCC1` (centres unmarked) [Example 60, N-{1-cyclopentyl-2-[(7-fluoro-3,4-dihydroisoquinolin-2(1H)-yl)sulfonyl]ethyl}-N-hydroxyformamide]: the half-inhibitory concentration (IC50) is 0.411 µM in assay [1] and 0.069 µM in assay [2]. The inhibition at 5 µM in assay [3] came to 6%.
In the case of `O=CN(O)C(COc1ccccc1)CS(=O)(=O)N1CCc2ccc(Cl)cc2C1` (centres unmarked) [Example 61, N-[2-[(7-chloro-3,4-dihydroisoquinolin-2(1H)-yl)sulfonyl]-1-(phenoxymethyl)ethyl]-N-hydroxyformamide], the concentration for half-maximal inhibition (IC50) in assay [1] was 0.038 µM; in assay [2] it was 0.015 µM. Besides, the inhibition at 5 µM in assay [3] was 22%.
`O=CN(O)C1(CS(=O)(=O)N2CCc3ccc(Cl)cc3C2)CCCC1` [Example 62, N-(1-{[(7-chloro-3,4-dihydroisoquinolin-2(1H)-yl)-sulfonyl]methyl}cyclopentyl)-N-hydroxyformamide]: the values for the concentration for half-maximal inhibition (IC50) in assay [1] and in assay [2] were 0.293 µM and 0.036 µM, respectively. Besides, the inhibition at 5 µM in assay [3] stood at 52%.
For `CCCCCC(C)(C)C(CS(=O)(=O)N1CCc2cc(C(F)(F)F)ccc2C1)N(O)C=O` (centres unmarked) [Example 63, N-[2,2-dimethyl-1-({[6-(trifluoromethyl)-3,4-dihydro-isoquinolin-2(1H)-yl]sulfonyl}methyl)heptyl]-N-hydroxyformamide], in that order: greater than 5 µM, 0.088 µM and 34%.
